Assay results taken from US5914313A, “1-[4-hydroxy-5-aminoethyloxy-N^2 -(10,12-dimethyl-1-oxotetradecyl)ornithine]-5-(3-hydroxyglutamine)-6-(3- hydroxyproline)echinocandin B, other aminoalkyl derivatives and salts thereof” (Merck & Co., Inc., priority 1993, dated 1999).

What was measured:
human blood cells = assay: Red blood cell lysis, minimum lytic concentration (MLC); type: cell-based; conditions: 2 hours at room temperature, lowest concentration giving complete or partial lysis, tested 400 to 0.20 μg/ml
Excerpt: A harmful and potentially fatal side reaction of a number of drugs including certain antibiotically active echinocandin compounds is red blood cell lysis. […] The blood cell lysis property may be seen in the determination carried out in the following manner.
The blood employed is a 4 percent suspension of freshly drawn heparinized blood prepared by adding 2 milliliters of blood to 50 milliliters of sterile 5 percent dextrose.
Compoufid I was solubilized in a small volume of dimethylsulfoxide (DMSO) that was then diluted with distilled water to a final concentration of 5 percent DMSO to obtain a drug solution of 4.0 mg/ml. A 0.2 milliliter amount of the drug solution was added to 1.4 milliliters of sterile 5 percent dextrose to obtain the test solution. A diluent control was also prepared.
A 96-well microtiter plate with a well volume of 0.35 ml was used for the assay. Columns 2-12 were filled with 150 µl of sterile 5 percent dextrose. Then, 300 μl of test solutions were dispensed into the wells in column 1 and serially two-fold diluted in 5 percent dextrose to yield final test concentrations of from 400 to 0.20 μg/ml. 38 μl of red blood cell suspension were added to each well, the plate was gently agitated to mix the well contents and incubated at room temperature for 2 hours, and thereafter observed to determine extent of hemolysis as indicated by complete or partial clearing (lysis).

Pneumocystis carinii = Pneumocystis carinii pneumonia in immunosuppressed rats, reduction of cysts; type: in vivo, Sprague-Dawley rats; conditions: subcutaneous, twice daily for four days
Method: The compounds of the present invention may also be useful for inhibiting or alleviating Pneumocvstis carinii infections in immune compromised patients. […] Before drug treatment, two rats are sacrificed to confirm the presence of Pneumocystis carinii pneumonia (PCP). Five rats (weighing approximately 150 grams) are injected twice daily for four days subcutaneously (sc) with Compound I in 0.25 ml of vehicle (distilled water). A vehicle control is also carried out. All animals continue to receive dexasone in the drinking water and low protein diet during the treatment period. At the completion of the treatment, all animals are sacrificed, the lungs are removed and processed, and the extent of disease determined by microscopic examination of stained slides for the presence of cysts.
The dosage required for 90 percent reduction of cysts with representative compounds may be seen in the following table: […]

Candida albicans MY 1750 = assay: Minimum fungicidal concentration (MFC), separate similar experiment; type: cell-based
Excerpt: (§1) The compounds of the present invention are active against many fungi and as previously indicated particularly against Candida species. The antifungal properties may be illustrated with the minimum fungicidal concentration (MFC) determination against certain Candida organisms in a microbroth dilution assay carried out in a Yeast Nitrogen Base (Difco) medium with 1 percent dextrose (YNBD).
In carrying out the assay, Compound I was solubilized in 10 percent dimethyl sulfoxide (DMSO) and diluted to 2560 μg/ml. The compound was then diluted to 256 μg/ml in YNBD. 0.15 mL of the suspension was dispensed to the top row of a 96-well plate (each well containing 0.15 ml of YNBD) resulting in a drug concentration of 128 μg/ml. Two-fold dilutions were then made from the top row to obtain final drug concentrations ranging from 128 to 0.06 μg/ml. […]
96-well microplates were inoculated using a MIC-2000 (Dynatech) which delivers […] per well yielding a final inoculum per well of 1.5-7.5×10^3 cells. […] The minimum inhibitory concentrations (MICs) were recorded as the lowest concentrations of drug showing no visible growth.
After recording the MIC, the plates were shaken to resuspend the cells. […] The inoculated trays were incubated 24 hours at 28° C. and then read for minimum fungicidal concentration (MFC). […]

Candida albicans MY 1055 [1] = assay: Minimum fungicidal concentration (MFC), microbroth dilution assay in YNBD; type: cell-based; conditions: YNBD medium; MFC = lowest concentration showing no growth or less than 4 colonies per spot
Excerpt: as §1
(§2) In carrying out the assay, Compound I was solubilized in 10 percent dimethyl sulfoxide (DMSO) and diluted to 2560 μg/ml. The compound was then diluted to 256 μg/ml in YNBD. 0.15 mL of the suspension was dispensed to the top row of a 96-well plate (each well containing 0.15 ml of YNBD) resulting in a drug concentration of 128 μg/ml. Two-fold dilutions were then made from the top row to obtain final drug concentrations ranging from 128 to 0.06 μg/ml.
(§3) The yeast cultures, maintained on Sabouraud dextrose agar were transferred to YN broth (Difco) and incubated overnight at 35° C. with shaking (250 rpm). After incubation, each culture was diluted in sterile water to yield a final concentration of 1-5×10^6 colony forming units (CFU)/ml.
(§4) 96-well microplates were inoculated using a MIC-2000 (Dynatech) which delivers […] per well yielding a final inoculum per well of 1.5-7.5×10^3 cells. The microplates were incubated at 35° C. for 24 hours. The minimum inhibitory concentrations (MICs) were recorded as the lowest concentrations of drug showing no visible growth.
(§5) After recording the MIC, the plates were shaken to resuspend the cells. Thereafter, 1.5 μl samples from the wells in the 96-well microplate were transferred to a single well tray containing Sabouraud dextrose agar. The inoculated trays were incubated 24 hours at 28° C. and then read for minimum fungicidal concentration (MFC). MFC is defined as the lowest concentration of drug showing no growth or less than 4 colonies per spot.

[2] = tested on: Candida tropicalis MY 1012; assay: as above; type: cell-based; conditions: YNBD medium; MFC = lowest concentration showing no growth or less than 4 colonies per spot
Excerpt: as §1, §2, §3, §4, §5

Candida albicans MY 1055 [3] = assay: In vivo effectiveness: recoverable Candida CFU in kidneys of infected mice; conditions: 0.4 mg/kg I.P. twice daily for four consecutive days; DBA/2 mice; kidneys after seven days
Method: Growth from an overnight SDA culture of Candida albicans MY 1055 was suspended in sterile saline and the cell concentration determined by hemacytometer count and the cell suspension adjusted to 3.75×10^5 cells/ml. Then 0.2 milliliter of this suspension was administered I.V. in the tail vein of mice so that the final inoculum was 7.5×10^4 cells/mouse.
The assay then was carried out by administering aqueous solutions of Compound I (R1 =--CH2 CH2 NH2) at various concentrations intraperitoneally (I.P.), twice daily (b.i.d.) for four consecutive days to 18 to 20 gram female DBA/2 mice, which previously had been infected with Candida albicans (MY 1055) in the manner described above. Distilled water was administered I.P. to C. albicans challenged mice as controls. After seven days, the mice were sacrificed by carbon dioxide gas, paired kidneys were removed aseptically and placed in sterile polyethylene bags containing 5 milliters of sterile saline. The kidneys were homogenized in the bags, serially diluted in sterile saline and aliquots spread on the surface of SDA plates. The plates were incubated at 35° C. for 48 hours and yeast colonies were enumerated for determination of colony forming units (CFU) per-gram of kidneys.

Row | Substance | MLC (minimum lytic concentration) (human blood cells) | dosage required for 90 percent reduction of cysts (Pneumocystis carinii) | MFC C. albicans MY 1750 (Candida albicans MY 1750) | MFC C. albicans MY 1055 (Candida albicans MY 1055 [1]) | MFC C. tropicalis MY 1012 [2] | reduction of recoverable Candida CFUs (kidneys) (Candida albicans MY 1055 [3])
1 | Glycylaminoethyloxy Ether as the Trifluoroacetate [--CH2 CH2 NHCOCH2 NH2 / DMTD] | > 400 µg/mL | 0.04 mg/kg | 0.50 µg/mL | 1.0 µg/mL | 0.5 µg/mL | 
2 | 1-[4-hydroxy-5-aminoethyloxy-N^2 -(10,12-dimethyl-1-oxotetradecyl)ornithine]-5-(3-hydroxyglutamine)-6-(3-hydroxyproline) echinocandin B trifluoroacetate [--CH2 CH2 NH2 / DMTD] |  |  |  | 0.125 µg/mL | 0.25 µg/mL | greater than 99%
